This assay has as its system MDA-MB-231. Briefly: Cell viability (CellTiter-Blue, 72 h), MDA-MB-231 breast cancer cells. The class given is cell-based. To be noted: for IC50: Homo sapiens; for effect (but only 50% effect): extent of effect reached. The method, then: The cell lines tested in this Example were as follows. Breast cancer: MDA-MB-231; SK-BR3; and BT474. Liver cancer: HepG2.
The phytocannabinoids were tested alone and in various ratioed combinations in media containing final concentrations of 10% and 1% foetal bovine serum at 72 h for the breast and prostate cancer lines and 1% foetal bovine serum for the liver cancer line HepG2.
Each tumour cell line was maintained in vitro in RPMI 1640+10% heat inactivated FBS and 2 mM L-glutamine (growth media) at 37° C. in 5% CO2 and humidified conditions. The cells were harvested, washed, re-suspended into growth medium and counted. The cells were re-suspended into assay media (RPMI 1640+5% heat inactivated FBS+ and 2 mM L-glutamine) at 8×104-2×10^5 cells/ml (dependent upon cell type) and plated into the middle 240 wells of 384 well tissue culture plates (Corning CellBind, black-wall plates) 12.5 μl/well aliquots; 62.5 μl of growth media was aliquoted into the outer wells. There were 4 plates for each cell line. The plates were incubated overnight at 37° C., in 5% humidified CO2.
The phytocannabinoid test compounds were prepared in 100% DMSO vehicle at a stock concentration of 10 mM.
Starting with the 10 mM stock, the compounds were diluted to 125 μM in FBS-free growth media.
These were diluted in FBS-free growth media to 125 μM before serial dilution.
5 volumes of CBD 10 mM stock was added to 1 volume of the other agent (also at 10 mM) and 4 volumes of DMSO. This made a final concentration of 5 mM:1 mM. This was then diluted in FBS-free growth media so the top concentration of CBD would be 125 μM (before serial dilution). Each compound and compound combination stock was serially diluted in FBS-free growth media (containing 1.25% v/v DMSO) from 125 μM to 41.7, 13.89, 4.63, 1.54, 0.514, 0.171, 0.057 and 0.019 μM (1.25× final assay concentrations). Vehicle was prepared at equivalent dilutions in assay media. The top final concentration of compound in the assay was always 100 μM so CBD5:1CBG was 100 μM CBD and 20 μM CBG.
Taxotere SOC was prepared at a stock concentration of 1 mM in 100% DMSO. Taxotere was serially diluted from the stock solution into FBS-free growth media to 12.5 μM, then serially diluted in FBS-free growth media containing 1.25% DMSO to 4.17, 1.39, 0.46, 0.154, 0.051, 0.017, 0.006, 0.002 μM (1.25× final assay concentrations).
The plates were incubated for 72 h at 37° C. in 5% humidified CO2. To develop the plates, at 72 h, 10 μl of CellTiter-Blue™ reagent was added to each test/blank well. The plates were incubated at 37° C., 5% humidified CO2. Fluorescence was measured using a Flex II Station plate reader (570 nm excitation wavelength, 600 nm emission wavelength, 590 nm cut-off) after 3 h.
The experimental conditions were the same as the experiment above, with the same compound dilutions and volumes for plating but using growth media containing 10% FBS rather than FBS-free media.
The raw data values expressed in relative fluorescent units were normalised to the vehicle for each individual plate and any reduction in fluorescence indicated a decrease in viability.
The data were analysed in GraphPad PRISM using a non-linear sigmoidal plot with variable slope (asymmetric five point linear regression) and where possible an IC50 value for each single compound and combination was generated.
For the calculation, raw data values expressed in relative fluorescent units were normalised to the vehicle for each individual plate (set as 0%) and the reduction in fluorescence calculated as an increase in inhibition of viability.
The data was formatted in Excel for each assay plate so that the average effect at each concentration for each separate phytocannabinoid and each of the combinations could be determined.
The mean data at each concentration of CBD was imported into the analysis package Calcusyn. Calcusyn software was designed by M. Hayball and C.

Setting [1] is: MDA-MB-231, 72 h, read-out: IC50 values, MDA-MB-231, 1% FBS, 72 h.
Where [2] appears, read: MDA-MB-231, 72 h, read-out: IC50 values, MDA-MB-231, 10% FBS, 72 h.
[3] abbreviates: MDA-MB-231, read-out: Dm (median effect dose), MDA-MB-231, 1% FBS, Calcusyn median-effect analysis.

Read-outs that look alike come from different tables or passages of the source.

For the molecule `C=C(C)[C@@H]1CCC(C)=C[C@H]1c1c(O)cc(CCCCC)cc1O` [CBD, Cannabidiol], the IC50 by setting is: under setting [1], 7.4 µM; under setting [2], 27 µM; under setting [3], 5.61 µM.
As for `C=C(C)[C@@H]1CCC(C)=C[C@H]1c1c(O)cc(CCCCC)c(C(=O)O)c1O` [CBDA, Cannabidiolic acid], the IC50 is 30 µM under setting [1] and 20 µM under setting [3]. Besides, the IC50 values entry (MDA-MB-231, 10% FBS, 72 h) is given as “NE at 100 μM”.
`CCCCCc1cc(O)c(C/C=C(\C)CCC=C(C)C)c(O)c1` [CBG, Cannabigerol]: the IC50 reads like this: under setting [1], 4.1 µM; under setting [2], 29 µM; under setting [3], 14.2 µM.
The like results for `CCCCCc1cc(O)c(C/C=C(\C)CCC=C(C)C)c(O)c1C(=O)O` [CBGA, Cannabigerolic acid] were, in that order, 16 µM, roughly 100 µM and 43.5 µM.
Turning to `CCCc1cc(O)c2c(c1)OC(C)(C)[C@@H]1CCC(C)=C[C@@H]21` [THCV, Tetrahydrocannabivarin], the IC50 runs as follows: under setting [1], 14.4 µM; under setting [2], 36 µM; under setting [3], 39 µM.
Consider `CC(=O)O[C@@]12CO[C@@H]1C[C@H](O)[C@@]1(C)C(=O)[C@H](O)C3=C(C)[C@@H](OC(=O)[C@H](O)[C@@H](NC(=O)OC(C)(C)C)c4ccccc4)C[C@@](O)([C@@H](OC(=O)c4ccccc4)[C@H]21)C3(C)C` [Taxotere, Docetaxel, reference compound], for which the IC50 under setting [1] is less than 0.001 µM and the IC50 under setting [2] was less than 0.001 µM. Moreover, the “effect (but only 50% effect)” value is listed as “only 50%” (MDA-MB-231, 1% FBS) and “only 50%” (MDA-MB-231, 10% FBS).

Source of the values: patent US9962341B2, “Active pharmaceutical ingredient (API) comprising cannabinoids for use in the treatment of cancer” (GW Pharma Limited, priority 2014, dated 2018).
